Laboratory results taken from ChEMBL document CHEMBL1134947, “A mechanism-based probe for gp120-Hydrolyzing antibodies” (Bioorg Med Chem Lett, 2002).
Square brackets hold non-standard residues; d marks the D form. Peptide text beside a SMILES is read from it. * marks the point of attachment. X2 = N=C(N)c1ccc(C(N*)P(=O)(Oc2ccccc2)Oc2ccccc2)cc1; X1 = O=C(CCCCC1SCC2NC(=O)NC21)NCCNC(=O)CCS*; Mpa = O=C(O)CCS

Molecular target: T1, Serine protease 1 (Bos taurus, UniProt P00760)
T1 sequence (P00760 whole entry): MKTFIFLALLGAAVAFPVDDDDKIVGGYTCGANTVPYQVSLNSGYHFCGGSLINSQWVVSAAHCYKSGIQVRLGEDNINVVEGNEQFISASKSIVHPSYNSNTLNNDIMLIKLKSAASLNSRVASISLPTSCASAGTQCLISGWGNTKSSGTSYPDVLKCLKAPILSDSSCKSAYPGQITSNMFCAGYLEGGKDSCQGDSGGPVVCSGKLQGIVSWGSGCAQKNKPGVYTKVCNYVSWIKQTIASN
Experiment: Concentration required for the inhibition of catalytic activity of bovine trypsin

SMILES | IC50 [µM]
N=C(N)c1ccc(C(NC(=O)CCSSCCC(=O)NCCNC(=O)CCCCC2SCC3NC(=O)NC32)P(=O)(Oc2ccccc2)Oc2ccccc2)cc1 (configuration not stated) | 31
CC[C@H](C)[C@H](NC(=O)[C@H](CCC(N)=O)NC(=O)[C@H](CCCCN)NC(=O)CCSSCCC(=O)NCCNC(=O)CCCCC1SCC2NC(=O)NC21)C(=O)N[C@H](C(=O)N[C@@H](CC(N)=O)C(=O)N[C@@H](CCSC)C(=O)N[C@@H](Cc1c[nH]c2ccccc12)C(=O)N[C@@H](CCC(N)=O)C(=O)N[C@@H](CCC(=O)O)C(=O)N[C@H](C(=O)NCC(=O)NC(c1ccc(C(=N)N)cc1)P(=O)(Oc1ccccc1)Oc1ccccc1)C(C)C)[C@@H](C)CC (some centres not stated) ([Mpa](X1)KQIINMWQEVG-X2) | 30
